SMILES strings stand for the structures. Like-named read-outs stand apart in the source and are kept apart here.

This is an account of results in US20240269139A1, “COMPOUNDS FOR TARGETED PROTEIN DEGRADATION OF KINASES” (DANA-FARBER CANCER INSTITUTE, INC., priority 2020, published 2024).

Assay [1] concerns the target T1, protein kinases (human kinome) (Homo sapiens, UniProt O15197).
T1 sequence (O15197 32-1021): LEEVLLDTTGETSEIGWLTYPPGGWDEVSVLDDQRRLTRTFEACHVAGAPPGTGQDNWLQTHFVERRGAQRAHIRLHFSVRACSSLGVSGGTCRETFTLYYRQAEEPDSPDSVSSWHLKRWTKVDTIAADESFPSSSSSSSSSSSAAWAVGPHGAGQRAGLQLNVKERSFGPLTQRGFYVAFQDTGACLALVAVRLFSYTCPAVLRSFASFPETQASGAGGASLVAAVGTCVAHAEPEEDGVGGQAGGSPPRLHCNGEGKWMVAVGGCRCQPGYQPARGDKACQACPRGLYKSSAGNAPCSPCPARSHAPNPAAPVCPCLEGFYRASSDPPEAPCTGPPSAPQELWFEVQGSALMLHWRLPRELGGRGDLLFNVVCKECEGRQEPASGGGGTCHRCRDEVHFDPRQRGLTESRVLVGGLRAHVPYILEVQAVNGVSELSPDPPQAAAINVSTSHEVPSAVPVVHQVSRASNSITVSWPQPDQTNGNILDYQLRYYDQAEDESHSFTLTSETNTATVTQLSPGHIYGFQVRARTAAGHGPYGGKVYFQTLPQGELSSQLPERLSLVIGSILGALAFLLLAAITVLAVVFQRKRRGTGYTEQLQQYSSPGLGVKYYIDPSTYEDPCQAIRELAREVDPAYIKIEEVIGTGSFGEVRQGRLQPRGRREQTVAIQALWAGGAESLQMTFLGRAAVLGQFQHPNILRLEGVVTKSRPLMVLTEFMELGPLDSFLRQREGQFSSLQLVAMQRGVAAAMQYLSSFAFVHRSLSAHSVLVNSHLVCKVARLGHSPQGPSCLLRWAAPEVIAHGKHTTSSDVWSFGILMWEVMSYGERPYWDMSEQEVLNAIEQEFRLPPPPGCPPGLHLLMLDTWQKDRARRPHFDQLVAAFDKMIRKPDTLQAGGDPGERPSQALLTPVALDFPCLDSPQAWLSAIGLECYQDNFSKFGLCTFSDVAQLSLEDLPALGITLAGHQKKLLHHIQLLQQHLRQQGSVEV
The class given is cell-based. The following applies: for logFC: EPHB6 (O15197-1).

The next assay addresses T2, CRBN (Homo sapiens, UniProt Q96SW2).
T2 construct: HEK293T cells stably expressing the BRD4BD2-GFP with mCherry reporter; endogenous in cells; host or cells: HEK293T stably expressing BRD4BD2-GFP / mCherry reporter
Kind of assay: Competitive displacement assay for cellular CRBN engagement (BRD4BD2-GFP reporter, dBET6). The class given is cell-based, H. sapiens. The following applies: 5 hours in presence of dBET6. As for the experimental part:
HEK293T cells stably expressing the BRD4BD2-GFP with mCherry reporter were seeded at 30-50% confluency in 384-well plates with 50 μL FluoroBrite™ Dulbecco's Modified Eagle's medium (DMEM) media (Thermo Fisher Scientific. A18967) containing 10% fetal bovine serum (FBS) per well a day before compound treatment. Degrader titrations and 100 nM dBET6 or 250 nM AT1 were dispensed using a D300e Digital Dispenser (HP), normalized to 0.5% DMSO, and incubated with cells for 5 hours. Assay plates were imaged using Acumen® (TTP Labtech), as described above.

Assay [2] concerns the target T3, extended human kinome (kinase-like proteins) (Homo sapiens, UniProt Q9UHH9).
T3 sequence (Q9UHH9 1-426): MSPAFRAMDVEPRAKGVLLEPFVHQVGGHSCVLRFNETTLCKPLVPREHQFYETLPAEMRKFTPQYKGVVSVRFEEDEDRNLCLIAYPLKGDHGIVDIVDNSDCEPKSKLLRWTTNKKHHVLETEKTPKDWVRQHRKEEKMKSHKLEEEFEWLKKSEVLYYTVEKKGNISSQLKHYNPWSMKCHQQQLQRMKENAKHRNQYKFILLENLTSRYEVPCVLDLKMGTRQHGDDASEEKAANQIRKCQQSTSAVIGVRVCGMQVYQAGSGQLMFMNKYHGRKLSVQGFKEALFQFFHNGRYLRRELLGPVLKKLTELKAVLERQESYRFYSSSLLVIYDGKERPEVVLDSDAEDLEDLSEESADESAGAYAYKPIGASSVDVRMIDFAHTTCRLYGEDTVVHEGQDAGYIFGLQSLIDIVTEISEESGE
As to the kind of experiment: Whole cell quantitative proteomics: extended kinome hits. The following applies: Accession Q9UHH9.

For `Cc1ccc(NC(=O)c2cccc(C(F)(F)F)c2)cc1N1Cc2cnc(Nc3ccc(N4CCN(Cc5cn(CCCCCOc6cccc7c6C(=O)N(C6CCC(=O)NC6=O)C7=O)nn5)CC4)nc3)nc2N(C)C1=O` (centres unmarked) [DB0646, N-(3-(7-((6-(4-((1-(5-((2-(2,6-Dioxopiperidin-3-yl)-1,3-dioxoisoindolin-4-yl)oxy)pentyl)-1H-1,2,3-triazol-4-yl)methyl)piperazin-1-v)pyridin-3-yl)amino)-1-methyl-2-oxo-1,4-dihydropyrimido[4,5-d]pyrimidin-3(2H)-yl)-4-methylphenyl)-3-(trifluoromethyl)benzamide], in assay [1] (experiment wp160, 4 hr), the logFC is given as −0.3396 and the “logFC of EPHB6 (O15197-1)” value is on record as −0.3396. In assay [1] (experiment wp160, 8 hr), the logFC is reported as −0.6548 and the “logFC of EPHB6 (O15197-1)” value is reported as −0.6548. Further, on CRBN, the “cellular permeability / CRBN engagement” value was “able to permeate the cell membrane and bind to the CRBN E3 ligase”.

With `Cc1ccc(NC(=O)c2cccc(C(F)(F)F)c2)cc1N1Cc2cnc(Nc3ccc(N4CCN(CCCOc5cccc6c5C(=O)N(C5CCC(=O)NC5=O)C6=O)CC4)nc3)nc2N(C)C1=O` (centres unmarked) [DB0662], in assay [1] (experiment wp168), the logFC is −0.736. The “logFC of EPHB6 (O15197-1)” value in assay [1] (Experiment wp168) is listed as −0.736.

For the molecule `C[C@@H]1C[C@@H](O)c2ncnc(N3CCN(C(=O)[C@H](CNCCCCCCCCCCc4cccc5c4C(=O)N(C4CCC(=O)NC4=O)C5=O)c4ccc(Cl)cc4)CC3)c21` (some centres unmarked) [INY.03.041.01], the “logFC IP6K2” value in assay [2] (experiment wp118) is given as −0.662; in assay [2] (experiment wp135, 4 hr), −0.3251.

As to `Cc1ccc(C(=O)Nc2ccc(CN3CCN(CCCOCCOCCOCCNC(=O)COc4cccc5c4C(=O)N(C4CCC(=O)NC4=O)C5=O)CC3)c(C(F)(F)F)c2)cc1C#Cc1cnc2cccnn12` (centres unmarked) [SB1-G-187, N-(4-((4-(1-((2-(2,6-dioxopiperidin-3-yl)-1,3-dioxoisoindolin-4-yl)oxy)-2-oxo-6,9,12-trioxa-3-azapentadecan-15-yl)piperazin-1-yl)methyl)-3 (trifluoromethyl)phenyl)-3-(imidazo[1,2-b]pyridazin-3-ylethynyl)-4-methylbenzamide], at CRBN, the “cellular permeability / CRBN engagement” value was “able to permeate the cell membrane and bind to the CRBN E3 ligase”.

In the case of `Cn1c(=O)c(-c2c(Cl)cccc2Cl)cc2cnc(Nc3ccc(OCCNC(=O)CCCCCCNC(=O)COc4cccc5c4C(=O)N(C4CCC(=O)NC4=O)C5=O)cc3)nc21` (centres unmarked) [SB1.G.192.1], in assay [1] (experiment wp071), the logFC is on record as −0.6259 and the “logFC of EPHB6 (O15197-1)” value is given as −0.6259. In assay [1] (experiment wp131), the logFC is −0.5189 and the “logFC of EPHB6 (O15197-1)” value is given as −0.5189.

With `CC(C)S(=O)(=O)c1ccccc1Nc1nc(Nc2ccc(N3CCN(CCOCCNC(=O)CNc4cccc5c4C(=O)N(C4CCC(=O)NC4=O)C5=O)CC3)cc2)ncc1Cl` (centres unmarked) [SK-3-91], at CRBN, the “cellular permeability / CRBN engagement” value was “able to permeate the cell membrane and bind to the CRBN E3 ligase”.

For `CC(C)S(=O)(=O)c1ccccc1Nc1nc(Nc2ccc(N3CCN(CCOCCNC(=O)CNc4cccc5c4C(=O)N(C4CCC(=O)NC4=O)C5=O)CC3)cc2)ncc1Cl` (centres unmarked) [SK.3.91], the “logFC IP6K2” value in assay [2] (experiment wp016, 1 uM) is reported as −0.9368; in assay [2] (experiment wp107), −1.472; in assay [2] (experiment wp133, 1 hr), −0.4547; in assay [2] (experiment wp133, 2 hr) it was −0.6461; in assay [2] (experiment wp133, 4 hr), −0.9692; in assay [2] (experiment wp160, 2 hr) it was −0.4937. Moreover, the “logFC IP6K2” value in assay [2] (experiment wp160, 4 hr) is −0.6281.

Consider `CC(C)S(=O)(=O)c1ccccc1Nc1nc(Nc2ccc(N3CCN(CCOCCOCCNC(=O)CNc4cccc5c4C(=O)N(C4CCC(=O)NC4=O)C5=O)CC3)cc2)ncc1Cl` (centres unmarked) [TL12.186], for which the “logFC IP6K2” value in assay [2] (experiment wp137) was −0.7538.
